How the values were obtained:
barnyardgrass [1] = test: Test C preemergence; assay type: in vivo, Echinochloa crusgalli; details: Preemergence, 1000 g ai/ha; visual rating after 10 days, 0 to 100 scale (0 no effect, 100 complete control)
Text: (§1) Seeds of plant species selected from barnyardgrass (Echinochloa crusgalli), blackgrass (Alopecurus myosuroides), corn (Zea mays), foxtail, giant (giant foxtail, Setaria faberi), green foxtail (Setaria viridis), goosegrass (Eleusine indica), kochia (Bassia scoparia), oat, wild (wild oat, Avena fatua), pigweed, palmer (palmer amaranth, palmer pigweed, Amaranthus palmeri), Pigweed, Redroot (redroot pigweed, Amaranthus retroflexus), ragweed (common ragweed, Ambrosia artemisiifolia), ryegrass, Italian ([…] ryegrass, Lolium multiflorum), soybean (Glycine max), and wheat (Triticum aestivum) were planted into a blend of loam soil and sand and treated preemergence with a directed soil spray using test chemicals formulated in a non-phytotoxic solvent mixture which included a surfactant. At the same time, plants selected from these crops and weed species and also galium (catchweed bedstraw, Galium aparine) and horseweed (Erigeron canadensis) were planted in pots containing the same blend of loam soil and sand and treated with postemergence applications of test chemicals formulated in the same manner. Plants ranged in height from 2 to 10 cm and were in the one- to two-leaf stage for the postemergence treatment. Treated plants and untreated controls were maintained in a greenhouse for 10 days, after which time all treated plants were compared to untreated controls and visually evaluated for injury. Plant response ratings, summarized in Table C, are based on a 0 to 100 scale where 0 is no effect and 100 is complete control. A dash (-) response means no test result.

blackgrass [2] = test: Test C preemergence; assay type: in vivo, Alopecurus myosuroides; details: Preemergence, 1000 g ai/ha; visual rating after 10 days, 0 to 100 scale (0 no effect, 100 complete control)
Text: as §1

green foxtail [3] = test: Test C preemergence; assay type: in vivo, Setaria viridis; details: Preemergence, 1000 g ai/ha; visual rating after 10 days, 0 to 100 scale (0 no effect, 100 complete control)
Text: as §1

kochia [4] = test: Test C preemergence; assay type: in vivo, Bassia scoparia; details: Preemergence, 1000 g ai/ha; visual rating after 10 days, 0 to 100 scale (0 no effect, 100 complete control)
Text: as §1

pigweed, palmer [5] = test: Test C preemergence; assay type: in vivo, Amaranthus palmeri; details: Preemergence, 1000 g ai/ha; visual rating after 10 days, 0 to 100 scale (0 no effect, 100 complete control)
Text: as §1

ragweed [6] = test: Test C preemergence; assay type: in vivo, Ambrosia artemisiifolia; details: Preemergence, 1000 g ai/ha; visual rating after 10 days, 0 to 100 scale (0 no effect, 100 complete control)
Text: as §1

ryegrass, Italian [7] = test: Test C preemergence; assay type: in vivo, Lolium multiflorum; details: Preemergence, 1000 g ai/ha; visual rating after 10 days, 0 to 100 scale (0 no effect, 100 complete control)
Text: as §1

barnyardgrass [8] = test: Test C postemergence; assay type: in vivo, Echinochloa crusgalli; details: Postemergence, 1000 g ai/ha; 0 to 100 scale, 0 no effect, 100 complete control
Text: as §1

blackgrass [9] = test: Test C postemergence; assay type: in vivo, Alopecurus myosuroides; details: Postemergence, 1000 g ai/ha
Text: as §1

green foxtail [10] = test: Test C postemergence; assay type: in vivo, Setaria viridis; details: Postemergence, 1000 g ai/ha
Text: as §1

kochia [11] = test: Test C postemergence; assay type: in vivo, Bassia scoparia; details: Postemergence, 1000 g ai/ha
Text: as §1

pigweed, palmer [12] = test: Test C postemergence; assay type: in vivo, Amaranthus palmeri; details: Postemergence, 1000 g ai/ha
Text: as §1

ragweed [13] = test: Test C postemergence; assay type: in vivo, Ambrosia artemisiifolia; details: Postemergence, 1000 g ai/ha
Text: as §1

ryegrass, Italian [14] = test: Test C postemergence; assay type: in vivo, Lolium multiflorum; details: Postemergence, 1000 g ai/ha
Text: as §1

galium = test: Test C postemergence; assay type: in vivo, Galium aparine; details: Postemergence, 1000 g ai/ha
Text: as §1

horseweed = test: Test C postemergence; assay type: in vivo, Erigeron canadensis; details: Postemergence, 1000 g ai/ha
Text: as §1

[15] = 0 to 100 scale, 0 no effect, 100 complete control
[16] = 10 days, visual 0 to 100 scale (0 no effect, 100 complete control)

Structure (SMILES) | Plant response rating, Barnyardgrass (barnyardgrass [1]) | Plant response rating, Blackgrass (blackgrass [2]) | Plant response rating, Foxtail, Green (green foxtail [3]) | Plant response rating, Kochia (kochia [4]) | Plant response rating, Pigweed, Palmer (pigweed, palmer [5]) | Plant response rating, Ragweed (ragweed [6]) | Plant response rating, Ryegrass, Italian (ryegrass, Italian [7]) | Plant response rating, Barnyardgrass (barnyardgrass [8]) | Plant response rating, Blackgrass (blackgrass [9]; [15]) | Plant response rating, Foxtail, Green (green foxtail [10]; [15]) | Plant response rating, Kochia (kochia [11]; [15]) | Plant response rating, Pigweed, Palmer (pigweed, palmer [12]; [15]) | Plant response rating, Ragweed (ragweed [13]; [15]) | Plant response rating, Ryegrass, Italian (ryegrass, Italian [14]; [15]) | Plant response rating, Galium (galium; [15]) | Plant response rating, Horseweed (horseweed; [15]) | also measured
Cc1cnc(-c2cccc(C(=O)N3C[C@H](C)Oc4c(C)cccc43)c2)cn1 [Compound 162] | 60 | 30 | 90 | 0 | 30 | 0 | 70 | 10 | 0 | 10 | 70 | 20 | 20 | 40 | 50 | 0 | 
Cc1cc(-c2cccc(C(=O)N3C[C@H](C)Oc4c(C)cccc43)c2)ccn1 [Compound 163] | 0 | 10 | 10 | 0 | 0 | 0 | 20 | 0 | 20 | 10 | 50 | 30 | 20 | 0 | 0 | 0 | 
C[C@H]1CN(C(=O)c2cccc(N3CCOCC3)c2)c2cccc(Cl)c2O1 [Compound 166] | 0 | 0 | 0 | 0 | 0 | 0 | 0 | 0 | 0 | 0 | 0 | 10 | 0 | 0 | 20 | 0 | 
Cc1ccc(-c2cccc(C(=O)N3C[C@H](C)Oc4c(Cl)cccc43)c2)o1 [Compound 204] | 0 | 0 | 0 | 20 | 10 | 0 | 40 | 0 | 0 | 0 | 0 | 10 | 20 | 0 | 50 | 0 | 
C[C@H]1CN(C(=O)c2cccc(-c3ccn(C)n3)c2)c2cccc(Cl)c2O1 [Compound 205] | 0 | 0 | 40 | 50 | 60 | 0 | 40 | 10 |  |  |  |  |  |  |  |  | Plant response rating, Blackgrass (blackgrass [9]; [16]): 30; Plant response rating, Foxtail, Green (green foxtail [10]; [16]): 30; Plant response rating, Kochia (kochia [11]; [16]): 50; Plant response rating, Pigweed, Palmer (pigweed, palmer [12]; [16]): 30; Plant response rating, Ragweed (ragweed [13]; [16]): 20; Plant response rating, Ryegrass, Italian (ryegrass, Italian [14]; [16]): 40; Plant response rating, Galium (galium; [16]): 0; Plant response rating, Horseweed (horseweed; [16]): 0
